Patent US10543183B2, “Treatment and diagnosis of melanoma” (The Rockefeller University, priority 2012, dated 2020)
Structures can show the parent of a compound that is named as a salt.

Columns and labels:
[1] = system: B16F10 mouse melanoma cells; experiment: subcutaneous B16F10 tumor growth in mice; format: in vivo; conditions: for primary tumor growth in vivo (FIG. 21): mouse; for suppression of tumor growth by B16F10 cells: 20 mg/kg, tumors 5-10 mm3 at start, immunocompetent mice
[2] = system: breast, renal, pancreatic and lung cancer cell lines; experiment: trans-well matrigel invasion assay, other cancer types; format: cell-based, human
Protocol: The ability of cancer cells to invade through matrigel in vitro was tested by using a trans-cell matrigel invasion chamber system (354480, BD Biosciences). Various cancer cell lines were serum-starved overnight in media containing 0.2% FBS. The following day, invasion chambers were pre-equilibrated prior to the assay by adding 0.5 mL of starvation media to the top and bottom wells. Meanwhile, cancer cells were trypsinized and viable cells were counted using the trypan blue dead cell exclusion dye. Cancer cells were then resuspended at a concentration of 1×10^5 cells/1 mL starvation media, and 0.5 mL of cell suspension, containing 5×10^4 cells, was seeded into each trans-well. […] The basal side of each insert was imaged using an inverted fluorescence microscope (Zeiss Axiovert 40 CFL) at 5× magnification, and the number of DAPI-positive cells was quantified using ImageJ.
The cells were serum starved for 16 hours in 0.2% FBS media in the presence of DMSO or GW3965. […] Meanwhile, cancer cells were trypsinized and viable cells were counted using trypan blue. […] The basal side of each insert was imaged using an inverted fluorescence microscope (Zeiss Axiovert 40 CFL) at 5× magnification, and the number of DAPI-positive cells was quantified using ImageJ.

[3] = system: human melanoma cells (MeWo, MeWo-LM2, HT-144, SK-Mel-2, SK-Mel-334.2); experiment: trans-well matrigel cell invasion assay, melanoma cells; format: cell-based; conditions: for ability of melanoma cells to invade through matrigel: MeWo, HT-144, SK-Mel-2, SK-Mel-334.2, 1 μM for 72 hours
Protocol: Cancer cells were serum-starved in 0.2% FBS DMEM-based media for 12 hours. Trans-well invasion chambers (354480, BD Biosciences, Bedford, Mass.) were pre-equilibrated prior to beginning the assay by adding 0.5 mL of starvation media to the top and bottom chambers. After 30 minutes, the media in the top chamber was removed, and 0.5 mL of media containing 1×10^5 cancer cells was added into each matrigel-coated trans-well insert and incubated at 37° C. for 24 hours. For neutralization antibody and/or recombinant protein experiments, antibody/recombinant protein was added to each well at the start of the assay at the following concentrations as indicated in the figures: 5-40 μg/mL anti-ApoE 1D7 (Heart Institute, University of Ottawa), 5-40 μg/mL anti-IgG (AB-108-C, R&D Systems, Minneapolis, Minn.), 100 μM recombinant human ApoE3 (4696, BioVision, Mountain View, Calif.), and 100 μM BSA (A2153, Sigma-Aldrich). Upon completion of the assay, matrigel-coated inserts were washed with PBS, the cells at the top side of each insert were scraped off, and the inserts were fixed in 4% paraformaldehyde for 15 minutes. The inserts were then cut out and mounted onto slides using VectaShield mounting medium containing DAPI (H-1000, Vector Laboratories, Burlingame, Calif.). The basal side of each insert was imaged using an inverted fluorescence microscope (Zeiss Axiovert 40 CFL) at 5× magnification, taking three representative images for each insert. The number of invaded cells was quantified using ImageJ (NIH).
The cell invasion assay was performed as previously described in detail (Pencheva et al., 2012) using a trans-well matrigel invasion chamber system (354480, BD Biosciences). In brief, various melanoma cells were cultured in the presence of DMSO, GW3965, T0901317, or Bexarotene at 1 μM for 56 hours, after which melanoma cells were switched to starvation media (0.2% FBS) for 16 hours in the presence of each drug. Following starvation, cells were seeded into matrigel-coated trans-well inserts, and the invasion assay was allowed to proceed for 24 hours at 37° C. For ApoE antibody neutralization experiments, 40 μg/mL 1D7 anti-ApoE blocking antibody (Heart Institute, University of Ottawa, Ottawa, Canada) or 40 μg/mL anti-IgG control antibody (AB-108-C, R&D Systems, Minneapolis, Minn.) was added to each trans-well insert at the start of the assay.
The cells were then serum starved for 16 hours in 0.2% FBS media in the presence of each corresponding drug or DMSO. Following serum starvation, the cells were subjected to the trans-well invasion assay using a matrigel invasion chamber system (354480, BD Biosciences). Invasion chambers were pre-equilibrated prior to the assay by adding 0.5 mL of starvation media to the top and bottom wells. Meanwhile, cancer cells were trypsinized and viable cells were counted using trypan blue. Cancer cells were then resuspended at a concentration of 2×10^5 cells/1 mL starvation media, and 0.5 mL of cell suspension, containing 1×10^5 cells, was seeded into each trans-well. The invasion assay was allowed to proceed for 24 hours at 37° C. […] Following fixation, the inserts were washed in PBS, cut out, and mounted onto slides using VectaShield mounting medium containing DAPI nuclear stain (H-1000, Vector Laboratories). The basal side of each insert was imaged using an inverted fluorescence microscope (Zeiss Axiovert 40 CFL) at 5× magnification, and the number of DAPI-positive cells was quantified using ImageJ.

Molecule	suppression of tumor growth in mice genetically inactivated for ApoE ([1]; ApoE−/− mice, diet 20 mg/kg)	tumor growth inhibition upon LXRα inactivation ([1]; LXRα−/− mice, diet 20 mg/kg)	ability to suppress melanoma tumor growth upon genetic ablation of systemic LXRβ ([1]; LXRβ−/− mice, diet 20 mg/kg)	primary tumor growth in vivo (FIG. 21) [1]	suppression of tumor growth by B16F10 cells ([1]; oral)	reduction in tumor growth by B16F10 cells ([1]; oral, 100 mg/kg)	reduction in growth of established large B16F10 tumors ([1]; tumors ~150 mm3 at start, chow 150 mg/kg)	tumor cell invasion of renal, pancreatic and lung cancer cells ([2]; RCC, PANC1, H460 cells, 1 μM for 72 hours)	ability of melanoma cells to invade through matrigel [3]	tumor cell invasion ([3]; parental MeWo cells pre-treated for 48 hours)	tumor cell invasion across breast, renal cell and pancreatic cancer ([2]; 100 μg/mL at start of assay)	invasion by metastatic LM2 cells ([3]; 100 μM added to cell media)
O=C(O)Cc1cccc(OCCCN(Cc2cccc(C(F)(F)F)c2Cl)CC(c2ccccc2)c2ccccc2)c1 [GW3965 2, 3-[3-[N-(2-Chloro-3-trifluoromethylbenzyl)-(2,2-diphenylethyl)amino]propyloxy] phenylacetic acid hydrochloride]	completely ineffective	had no effect	blocked	inhibit	67%	80%	roughly 50%	inhibition	consistently suppressed	decreased	–	–
recombinant ApoE3: recombinant human ApoE3 (4696, BioVision)	–	–	–	–	–	–	–	–	–	–	inhibited	significantly suppressed
O=S(=O)(c1ccccc1)N(CC(F)(F)F)c1ccc(C(O)(C(F)(F)F)C(F)(F)F)cc1 [T0901317 1]	–	–	–	inhibit	61%	–	–	–	consistently suppressed	–	–	–
